Test results published in the NIST ThermoML archive (doi:10.1021/je900131q).
“And” between values parts separate entries of the source, which are not always exact repeats. Identical values can stand only once.

Conditions: Fluid (supercritical or subcritical phases); for mass density: Buoyancy - hydrostatic balance with magnetic suspension - one sinker; for viscosity: Vibrating wire viscometer

[He] [helium]
Conditions | mass density | viscosity [mPa·s]
293.16 K, 6273.2 kPa | 9.9551 kg/m3 | 0.01957
293.16 K, 7587 kPa | 11.953 kg/m3 | 0.01957
293.16 K, 14320 kPa | 21.907 kg/m3 | 0.01959
293.16 K, 22974 kPa | 33.812 kg/m3 | 0.01968
293.16 K, 25225 kPa | 36.795 kg/m3 | 0.01971
293.16 K, 30149 kPa | 43.152 kg/m3 | 0.0198
293.16 K, 30150 kPa | 43.152 kg/m3 | 0.0198
293.17 K, 3742.6 kPa | 5.9981 kg/m3 | 0.01958
293.17 K, 6273.4 kPa | 9.9566 kg/m3 | 0.01957
293.17 K, 6273.7 kPa | 9.9551 kg/m3 | 0.01957
293.17 K, 7587.3 kPa | 11.953 kg/m3 | 0.01957
293.17 K, 8869.8 kPa | 13.892 kg/m3 | 0.01957
293.17 K, 10198 kPa | 15.951 kg/m3 and 15.945 kg/m3 | 0.01955
293.17 K, 12237 kPa | 18.892 kg/m3 | 0.01958
293.17 K, 18562 kPa | 27.894 kg/m3 | 0.01962
293.18 K, 2466.6 kPa | 3.9663 kg/m3 | 0.01959
293.18 K, 8870.2 kPa | 13.894 kg/m3 | 0.01957
293.18 K, 10228 kPa | 15.928 kg/m3 | 0.01958
293.18 K, 12237 kPa | 18.892 kg/m3 | 0.01958
293.18 K, 16436 kPa | 24.919 kg/m3 | 0.01961
293.18 K, 18563 kPa | 27.897 kg/m3 | 0.01964
293.18 K, 22975 kPa | 33.81 kg/m3 | 0.01968
293.19 K, 16436 kPa | 24.919 kg/m3 | 0.01961
293.19 K, 18564 kPa | 27.893 kg/m3 | 0.01963
293.2 K, 20756 kPa | 30.909 kg/m3 | 0.01965
293.2 K, 20757 kPa | 30.907 kg/m3 | 0.01966
293.21 K, 30174 kPa | 43.24 kg/m3 | 0.0198
293.21 K, 30175 kPa | 43.241 kg/m3 and 43.243 kg/m3 | 0.01979
293.22 K, 30175 kPa | 43.244 kg/m3 | 0.0198
293.24 K, 1220.6 kPa | 1.9766 kg/m3 | 0.01959
293.25 K, 1220.7 kPa | 1.978 kg/m3 | 0.0196
293.25 K, 1827.1 kPa | 2.949 kg/m3 | 0.01959
293.26 K, 613.3 kPa | 0.99551 kg/m3 | 0.0196
293.26 K, 1827.3 kPa | 2.9512 kg/m3 | 0.01959
293.27 K, 489.97 kPa | 0.79365 kg/m3 | 0.0196
293.27 K, 490.02 kPa | 0.79727 kg/m3 | 0.0196
293.27 K, 613.45 kPa | 0.99623 kg/m3 | 0.0196
293.28 K, 121.3 kPa | 0.19968 kg/m3 | 0.01954
293.28 K, 121.33 kPa | 0.19895 kg/m3 | 0.01955
293.28 K, 244.14 kPa | 0.39719 kg/m3 | 0.01958
293.28 K, 244.19 kPa | 0.39791 kg/m3 | 0.01958
293.28 K, 366.66 kPa | 0.59687 kg/m3 | 0.01959
293.28 K, 366.7 kPa | 0.59542 kg/m3 | 0.01959
